The target of assay [1] is T1, recombinant Aurora A (Homo sapiens, UniProt O14965).
T1 construct: purchased Upstate 14-511
T1 sequence (O14965 1-403): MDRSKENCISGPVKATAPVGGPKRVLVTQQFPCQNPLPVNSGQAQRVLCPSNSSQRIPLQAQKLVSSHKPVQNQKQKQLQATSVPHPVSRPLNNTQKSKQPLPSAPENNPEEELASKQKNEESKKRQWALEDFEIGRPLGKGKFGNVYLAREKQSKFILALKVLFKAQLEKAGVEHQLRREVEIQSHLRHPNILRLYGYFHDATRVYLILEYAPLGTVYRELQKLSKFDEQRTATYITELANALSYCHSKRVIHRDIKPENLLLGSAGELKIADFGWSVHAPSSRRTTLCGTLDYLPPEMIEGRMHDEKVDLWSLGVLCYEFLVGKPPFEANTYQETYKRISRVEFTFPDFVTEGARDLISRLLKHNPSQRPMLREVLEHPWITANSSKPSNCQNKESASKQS
The assay can be described thus: Aurora A enzyme assay (IMAP fluorescence polarization, Tamra-PKAtide substrate). Particulars: 8 nM enzyme, 25 μM ATP, 100 nM Tamra-PKAtide, 2 hours at room temperature. The format is biochemical. On the procedure:
(§1) An in vitro assay was developed that utilizes recombinant Aurora A or Aurora B as an enzyme source and a peptide based on PKA as the substrate.
Aurora A kinase assays were performed in low protein binding 384-well plates (Corning Inc). All reagents were thawed on ice. Compounds were diluted in 100% DMSO to desirable concentrations. […] For each reaction, 14 μl containing TAMRA-PKAtide, ATP, DTT and kinase buffer were combined with 1 μl diluted compound. The kinase reaction was started by the addition of 5 μl diluted enzyme. The reaction was allowed to run for 2 hours at room temperature. […] After an additional 2 hours, fluorescent polarization was measured using an Analyst AD (Molecular devices).
(§2) Dose-response curves were plotted from inhibition data generated each in duplicate, from 8 point serial dilutions of inhibitory compounds. Concentration of compound was plotted against kinase activity, calculated by degree of fluorescent polarization. To generate IC50 values, the dose-response curves were then fitted to a standard sigmoidal curve and IC50 values were derived by nonlinear regression analysis.
For orientation: Fluorescence polarisation rises when a labelled molecule tumbles more slowly, as on binding a larger partner.

Assay [2] has as its target T2, recombinant Aurora B (Homo sapiens, UniProt Q96GD4).
T2 construct: purchased Invitrogen pv3970
The assay can be described thus: Aurora B enzyme assay (IMAP fluorescence polarization, Tamra-PKAtide substrate). As to conditions: 26 nM enzyme, 50 μM ATP, 100 nM Tamra-PKAtide, 2 hours at room temperature. The format is biochemical. The procedure: as §1
Aurora A kinase assays were performed in low protein binding 384-well plates (Corning Inc). All reagents were thawed on ice. Compounds were diluted in 100% DMSO to desirable concentrations. Each reaction consisted of 26 nM enzyme (Aurora B, Invitrogen cat#pv3970), 100 nM Tamra-PKAtide (Molecular Devices, 5TAMRA-GRTGRRNSICOOH), 50 μM ATP (Roche), 1 mM DTT (Pierce), and kinase buffer (10 mM Tris, 10 mM MgCl2, 0.01% Tween 20). For each reaction, 14 μl containing TAMRA-PKAtide, ATP, DTT and kinase buffer were combined with 1 μl diluted compound. The kinase reaction was started by the addition of 5 μl diluted enzyme. The reaction was allowed to run for 2 hours at room temperature. The reaction was stopped by adding 60 μl IMAP beads (1:400 beads in progressive (94.7% buffer A: 5.3% buffer B) 1× buffer, 24 mM NaCl). After an additional 2 hours, fluorescent polarization was measured using an Analyst AD (Molecular devices).
as §2

T2 sequence (Q96GD4 whole entry): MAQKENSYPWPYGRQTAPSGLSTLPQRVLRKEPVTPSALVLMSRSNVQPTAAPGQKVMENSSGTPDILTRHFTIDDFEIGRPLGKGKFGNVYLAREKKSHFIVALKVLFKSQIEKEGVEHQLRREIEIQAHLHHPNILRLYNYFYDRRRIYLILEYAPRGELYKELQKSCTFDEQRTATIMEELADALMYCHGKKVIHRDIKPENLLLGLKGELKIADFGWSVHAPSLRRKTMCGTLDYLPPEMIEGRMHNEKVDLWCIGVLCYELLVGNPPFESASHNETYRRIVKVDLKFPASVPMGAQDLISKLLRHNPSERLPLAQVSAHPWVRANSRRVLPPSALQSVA

Usually IC50 stands for the concentration at which inhibition is half-maximal. In the case of `Cc1cc(Nc2nc(Sc3nc4ccccc4s3)cn3c(-c4cn[nH]c4)cnc23)sn1` [Example 4-1], in assay [1], the IC50 was determined as 0.661 µM.

Take `CSc1cn2c(-c3cn[nH]c3)cnc2c(Nc2cc(C)ns2)n1` [Example 4-3]: the IC50 in assay [2] was found to be 0.011 µM.

Regarding `Cc1cc(Nc2nc(Sc3ccccc3Cl)cn3c(-c4cn[nH]c4)cnc23)sn1` [Example 4-4], the IC50 is 0.6 µM in assay [1] and 0.442 µM in assay [2].

On to `Cc1cc(Nc2nc(Sc3ccccn3)cn3c(-c4cn[nH]c4)cnc23)sn1` [Example 4-5], for which, in assay [2], the 50% inhibitory concentration (IC50) amounted to 0.432 µM.

On to `CNC(=O)CSc1cn2c(-c3cn[nH]c3)cnc2c(Nc2cc(C)ns2)n1` [Example 4-6], for which the 50% inhibitory concentration (IC50) in assay [2] is 0.015 µM.

As for `COc1ccccc1Sc1cn2c(-c3cn[nH]c3)cnc2c(Nc2cc(C)ns2)n1` [Example 4-10], the IC50 stood at 0.074 µM in assay [1] and 0.024 µM in assay [2].

As for `COc1cccc(Sc2cn3c(-c4cn[nH]c4)cnc3c(Nc3cc(C)ns3)n2)c1` [Example 4-11], the concentration for half-maximal inhibition (IC50) in assay [1] was 0.05 µM; in assay [2] it was 0.114 µM.

`COc1ccc(Sc2cn3c(-c4cn[nH]c4)cnc3c(Nc3cc(C)ns3)n2)cc1` [Example 4-12]: in assay [2], the IC50 was determined as 0.024 µM.

Consider `Cc1cc(Nc2nc(Sc3ccc(Cl)cc3)cn3c(-c4cn[nH]c4)cnc23)sn1` [Example 4-13], for which the half-maximal inhibitory concentration (IC50) in assay [2] came out at 0.612 µM.

As for `CC(=O)Nc1ccc(Sc2cn3c(-c4cn[nH]c4)cnc3c(Nc3cc(C)ns3)n2)cc1` [Example 4-14], the IC50 in assay [1] is 0.009 µM; in assay [2] it was 0.004 µM.

`Cc1cc(Nc2nc(SCC(C)O)cn3c(-c4cn[nH]c4)cnc23)sn1` (centres unmarked) [Example 4-18]: the 50% inhibitory concentration (IC50) in assay [2] is 0.009 µM.

For the molecule `Cc1cc(Nc2nc(Sc3ccc(NC(=O)C4CC4)cc3)cn3c(-c4cn[nH]c4)cnc23)sn1` [Example 4-19], the half-maximal inhibitory concentration (IC50) in assay [1] is 0.025 µM; in assay [2], 0.067 µM.

In the case of `Cc1cc(Nc2nc(Sc3cccc(Cl)c3)cn3c(-c4cn[nH]c4)cnc23)sn1` [Example 4-20], in assay [2], the concentration for half-maximal inhibition (IC50) came to 0.01 µM.

`Cc1cc(Nc2nc(Sc3ccncc3)cn3c(-c4cn[nH]c4)cnc23)sn1` [Example 4-21]: the concentration for half-maximal inhibition (IC50) in assay [2] stood at 0.285 µM.

Take `Cc1cc(Nc2nc(Sc3nccs3)cn3c(-c4cn[nH]c4)cnc23)sn1` [Example 4-22]: in assay [2], the IC50 stood at 0.007 µM.

In the case of `Cc1cc(Nc2nc(Sc3ncc[nH]3)cn3c(-c4cn[nH]c4)cnc23)sn1` [Example 4-23], in assay [2], the half-maximal inhibitory concentration (IC50) was 0.066 µM.

Consider `Cc1cc(Nc2nc(Sc3ncn[nH]3)cn3c(-c4cn[nH]c4)cnc23)sn1` [Example 4-24], for which the IC50 in assay [2] turned out to be 0.035 µM.

On to `Cc1cc(Nc2nc(SC3CC3)cn3c(-c4cn[nH]c4)cnc23)sn1` [Example 4-25], for which the IC50 in assay [2] was under 1 µM.

Turning to `Cc1cc(Nc2nc(SC3CCNC3)cn3c(-c4cnn(C)c4)cnc23)sn1` (centres unmarked) [Example 4-26], the concentration for half-maximal inhibition (IC50) in assay [1] is over 5 µM; in assay [2] it was over 3 µM.

On to `CSc1cn2c(-c3cc[nH]n3)cnc2c(Nc2cc(C)ns2)n1` [Example 4-27], for which the concentration for half-maximal inhibition (IC50) in assay [1] stood at 0.697 µM; in assay [2], 0.223 µM.

With `CSc1cn2c(-c3cc(C4CC4)[nH]n3)cnc2c(Nc2cc(C)ns2)n1` [Example 4-28], the half-maximal inhibitory concentration (IC50) in assay [1] was 16.5 µM; in assay [2], over 3 µM.

On to `CSc1cn2c(-c3ccco3)cnc2c(Nc2cc(C)ns2)n1` [Example 4-30], for which the 50% inhibitory concentration (IC50) in assay [1] turned out to be 2.53 µM; in assay [2], 1.32 µM.

On to `CNc1ncc(-c2cnc3c(Nc4cc(C)ns4)nc(SC)cn23)s1` [Example 4-31], for which the IC50 was determined as 7.54 µM in assay [1] and 0.71 µM in assay [2].

With `CSc1cn2c(-c3cccc(C)c3)cnc2c(Nc2cc(C)ns2)n1` [Example 4-32], the 50% inhibitory concentration (IC50) is 14.2 µM in assay [1] and over 3 µM in assay [2].
